# Experiments:
# SNL model rats = test: Analgesic effect in a fifth lumbar nerve ligation (SNL) model, von Frey test; assay type: in vivo, Wistar rats; conditions: for extension range of reaction thresholds ± standard error (50% paw withdrawal threshold, after minus before administration): about 10 mg formulation on footpad for 1 hour, evaluated another 1 hour after removal, n=9; for extension range of reaction thresholds compared with the vehicle group: about 10 mg formulation on footpad, versus vehicle (Control example 1)
# Experimental: Test 2. […] A SNL model was prepared by a method of Kim and Chung (Pain 50, 355-363, 1992) with partial modification thereof. Specifically, male 5-week-old Wistar rats were anesthetized with pentobarbital and isoflurane inhalation, and under anesthesia, an unilateral fifth lumber nerve was exposed. Then, the fifth lumber nerve was ligated with a silk surgical suture to obtain a SNL model. Evaluation of the analgesic effect was conducted with the von Frey test. Specifically, an animal was poked with a von Frey hair on a footpad in a hind limb of an animal at the side of operation. Reaction thresholds (50% paw withdrawal thresholds) to mechanical stimulation were calculated with a formula according to a method of Chaplan (Journal of Neuroscience Methods 53, 55-63, 1994). […] Reaction thresholds were measured on one and two days before the evaluation of test compounds, and an average of the measured values was determined as the reaction threshold before administration of test compounds. […] One day after the division into groups, test compounds were administered. […] Administration of a test compound was carried out by application of about 10 mg of each formulation on a medical adhesive film, and attachment of the film to a footpad of a SNL rat at the side of operation under anesthesia with isoflurane inhalation. One hour after the application, the film was removed, and another one hour after, reaction thresholds after administration of the test compound were evaluated. After the evaluation, blood was immediately collected from a cervical vein, and the concentration of the test compound in plasma was measured. The efficacy of the analgesic effect of a test compound is shown as an extension range of reaction thresholds±standard error (g) by the following formula: (Reaction threshold after administration of a test compound)−(Reaction threshold before administration of a test compound).
# [1] = Concentration in plasma during continuous intravenous administration in guinea pigs; assay type: in vivo; conditions: dose of 30 mg/kg continuous intravenous for 30 minutes
# Experimental: (§1) Evaluation of ECG of guinea pigs was conducted under anesthesia with intra-abdominal administration of a mixed solution of urethane and α-chloralose. Guinea pigs under anesthesia were retained in a supine position, and a right cervical vein was exposed to […] cannula. […] QRS interval and QTc interval are shown as rates of change (%) by similar equations.
# [2] = Concentration of the test compound in plasma after evaluation in SNL rats; assay type: in vivo; conditions: Wistar, rat, topical about 10 mg formulation, blood collected immediately after evaluation (2 hours after application)
# Experimental: One day after the division into groups, test compounds were administered. […] Administration of a test compound was carried out by application of about 10 mg of each formulation on a medical adhesive film, and attachment of the film to a footpad of a SNL rat at the side of operation under anesthesia with isoflurane inhalation. One hour after the application, the film was removed, and another one hour after, reaction thresholds after administration of the test compound were evaluated. After the evaluation, blood was immediately collected from a cervical vein, and the concentration of the test compound in plasma was measured.
# [3] = tested on: ECG (electrocardiogram) parameters of guinea pigs; test: Safety pharmacology study of the cardiovascular system: ECG parameters under anesthesia; assay type: in vivo; conditions: for effect on the cardiovascular system / ECG parameters: guinea pigs under anesthesia, continuous intravenous administration
# Experimental: as §1, with “Test 3. […] Evaluation” for “Evaluation”
# [4] = 30 mg/kg continuous intravenous for 30 minutes, at 30 minutes after administration
# [5] = 15 mg/kg continuous intravenous for 30 minutes, at 30 minutes after administration
maximum concentration in plasma [1] [µg/mL],concentration at 2 h [2] [ng/mL],Compound,difference between extension ranges of reaction thresholds of Compound A and lidocaine groups (SNL model rats; Example 1 ointment versus 5% lidocaine ointment),"extension range of reaction thresholds ± standard error (50% paw withdrawal threshold, after minus before administration) (SNL model rats) [g]",extension range of reaction thresholds compared with the vehicle group (SNL model rats),rates of change of each ECG parameter compared with the vehicle group ([3]; 30 mg/kg continuous intravenous for 30 minutes),"PR interval rate of change (prolonged) [3, 4] [%]","QRS interval rate of change (prolonged) [3, 4] [%]","QTc interval rate of change (prolonged) [3, 4] [%]",plasma concentration without effect on the cardiovascular system relative to that at which the analgesic effect appeared ([3]; guinea pig maximum plasma concentration at 30 mg/kg versus SNL rat plasma concentration),effect on the cardiovascular system / ECG parameters [3],"PR interval rate of change (prolonged) [3, 5] [%]","QRS interval rate of change (prolonged) [3, 5] [%]"
16.9,25.2,"CCn1c(CN[C@@H](C)C(N)=O)nc2ccc(Oc3ccc(C)cc3)cc21 [Compound A, N^2-{[1-ethyl-6-(4-methylphenoxy)-1H-benzimidazol-2-yl]methyl}-L-alaninamide]",no statistically significant difference,2.2 ± 0.56,statistically significantly increased,no statistically significant difference,22.3,10.3,9.0,about 670 times,not observed until the dose rose to 30 mg/kg,–,–
–,–,"CCN(CC)CC(=O)Nc1c(C)cccc1C [lidocaine, reference compound]",–,4.1 ± 0.62,statistically significantly increased,–,–,–,–,–,observed at a dose of 15 mg/kg,35.1,44.5
